Measured values published in US20260070917A1, “CYCLIN DEPENDENT KINASE DEGRADERS AND METHODS OF USE THEREOF” (Differentiated Therapeutics Inc, priority 2023, published 2026).

Tests used:
Format in all cases: cell-based
CDK9 = molecular target: T1, CDK9 (Homo sapiens, UniProt P50750); experiment: HiBit Assay Protocol for CDK9 (HIBIT protein quantification, degradation); conditions: HEK293-CDK9-Hibit cells, compound treatment for 6 hours; for Dmax: 6 h, read-out: CDK9 HIBIT Protein Quantification Maximum; for DC50: ABS DC50
T1 construct: host or cells: HEK293-CDK9-Hibit
Procedure: HiBit Assay Protocol for CDK9
• 1. The culture medium for HEK293-CDK9-Hibit cell was prepared using DMEM with 10% FBS. • 2. Cells were cultivated in T-75 flasks in a cell culture incubator set at 37° C., 5% CO2, 95% relative humidity. Cells were allowed to reach 80-90% confluence before detaching and splitting. • 3. Cultivated cells were rinsed in T-75 flasks with 5 mL PBS. Aspirated off. Added 1.5 mL trypsin, and incubated the cells at 37° C. for approximately 5 minutes or until the cells detached and floated. • 4. Trypsin was inactivated by adding excess serum containing medium. • 5. Cells were harvested from flask into cell culture medium and then the cell number was counted. HEK293-CDK9-Hibit cells were seeded into 384-well plate (cell density: 1.6×10^5 cells/well/50 uL medium) in DMEM medium according to the plate map below and were incubated overnight at 37° C. and 5% CO2. • Note: Cell Cultured Medium: 90% DMEM+10% FBS+1% Penicillin-Streptomycin Liquid
• 1. Test compounds were dissolved at 3 mM DMSO stock solution. Transferred 45 uL of stock solution to a 384 pp-plate. Perform 3-fold, 10-point dilution via transferring 15 uL compound into 30 uL DMSO by using TECAN liquid handler. • 2. The plates were spinned at room temperature at 1,000 RPM for 1 minute. • 3. Transferred 50 nL of diluted compound from compound source plate into the cell plate by Echo. • 4. After compound treatment for 6 hours, removed the plate from incubators and equilibrated at room temperature for 15 minutes. Prepared the HiBit reagent consists of the following ratios: 10 mL of Nano-Glo®-HiBiT Lytic Buffer, 200 uL of Nano-Glo®-HiBiT Lytic Substrate and 100 uL of LgBiT Protein, mixed thoroughly. Added 20 uL of HiBit reagent into each well and spinned the plates at room temperature at 1,000 RPM for 1 minute to be detected. Plates were then shaken at 600 RPM at room temperature for 20 minutes, and read by EnVision. • 5. The inhibition activity was calculated following the formula below:
[formula] • Note: Where HC was obtained from cells treated with 0.1% DMSO only; LC was obtained from culture medium only. • 6. The ABS DC50 was calculated by fitting the Curve using Xlfit (v5.3.1.3), equation 201: […]

CDK2 = molecular target: T2, CDK2 (Homo sapiens, UniProt P24941); experiment: HiBit Assay Protocol for CDK2 (HIBIT protein quantification, degradation); conditions: HEK293-CDK2-Hibit cells, compound treatment for 6 hours; for DC50: ABS DC50
T2 construct: host or cells: HEK293-CDK2-Hibit
Procedure, shortened: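 DC50 comes from a fitted curve of remaining CDK2-HiBiT luminescence, referenced to DMSO-treated cells and medium-only wells. HEK293-CDK2-HiBiT cells, plated the previous night, received compounds in a 10-point, 3-fold series for 6 h before lysis with LgBiT-containing Nano-Glo HiBiT reagent.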

CCNE1 = molecular target: T3, CCNE1 (Homo sapiens, UniProt P24864); experiment: HiBit Assay Protocol for CCNE1 (HIBIT protein quantification, degradation); conditions: HEK293-CCNE1-Hibit cells, compound treatment for 6 hours
T3 construct: host or cells: HEK293-CCNE1-Hibit
Procedure, shortened: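 Degradation readout: lytic Nano-Glo HiBiT luminescence after 6 h exposure of HEK293-CCNE1-HiBiT cells to 10-point, 3-fold serial dilutions. Signal was scaled between medium-only and DMSO-treated wells, and DC50 came from curve fits.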

T1 sequence (P50750 whole entry): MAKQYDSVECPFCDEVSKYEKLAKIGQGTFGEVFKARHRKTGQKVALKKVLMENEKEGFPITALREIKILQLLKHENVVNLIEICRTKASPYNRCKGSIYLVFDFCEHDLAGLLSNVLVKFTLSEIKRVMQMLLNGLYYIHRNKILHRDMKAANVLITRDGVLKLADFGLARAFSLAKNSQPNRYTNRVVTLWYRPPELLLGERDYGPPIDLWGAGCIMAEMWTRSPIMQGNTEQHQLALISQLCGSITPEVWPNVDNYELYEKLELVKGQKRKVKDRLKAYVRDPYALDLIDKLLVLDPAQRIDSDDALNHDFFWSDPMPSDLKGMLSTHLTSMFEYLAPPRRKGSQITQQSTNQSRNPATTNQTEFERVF
T3 sequence (P24864 whole entry): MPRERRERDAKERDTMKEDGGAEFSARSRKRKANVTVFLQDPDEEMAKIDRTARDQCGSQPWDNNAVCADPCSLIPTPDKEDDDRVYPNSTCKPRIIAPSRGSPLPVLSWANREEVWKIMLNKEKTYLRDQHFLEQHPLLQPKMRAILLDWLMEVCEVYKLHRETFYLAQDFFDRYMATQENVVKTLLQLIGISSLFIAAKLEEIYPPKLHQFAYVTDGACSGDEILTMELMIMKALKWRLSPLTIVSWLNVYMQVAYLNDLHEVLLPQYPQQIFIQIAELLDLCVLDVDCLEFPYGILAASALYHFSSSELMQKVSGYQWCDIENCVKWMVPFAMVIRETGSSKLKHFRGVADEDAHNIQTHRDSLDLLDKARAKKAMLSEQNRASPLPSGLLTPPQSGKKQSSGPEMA

Row | Dmax (CDK9) | CDK2 HIBIT Protein Quantification Maximum (CDK2) | CCNE1 HIBIT Protein Quantification Maximum (CCNE1) | DC50 (CDK9) | DC50 (CDK2) | SMILES
1 | 57% | 71% | 46% | 23 nM | 4 nM | CC1CCCC1N1C(=O)C2(CC2)c2cnc(NC3CCN(S(=O)(=O)N4CCN(C(=O)CCCCCc5cccc6c5n(C)c(=O)n6C5CCC(=O)NC5=O)CC4)CC3)nc21 (centres unmarked) [Compound 38]
2 | 6% | 54% | 9% |  | 7 nM | CC1CCCC1N1C(=O)C2(CC2)c2cnc(NC3CCN(S(=O)(=O)N4CC5(CCCN(C(=O)CCCCCc6cccc7c6n(C)c(=O)n7C6CCC(=O)NC6=O)C5)C4)CC3)nc21 (centres unmarked) [Compound 39]
3 | 32% | 60% | 62% |  | 16 nM | CC1CCCC1N1C(=O)C2(CC2)c2cnc(NC3CCN(S(=O)(=O)N4CCCN(C(=O)CCCCCc5cccc6c5n(C)c(=O)n6C5CCC(=O)NC5=O)CC4)CC3)nc21 (centres unmarked) [Compound 43]
4 | 5% | 39% | 44% |  |  | CC1CCCC1N1C(=O)C2(CC2)c2cnc(NC3CCN(S(=O)(=O)C4CCCN(C(=O)CCCCCc5cccc6c5n(C)c(=O)n6C5CCC(=O)NC5=O)C4)CC3)nc21 (centres unmarked) [Compound 44]
5 | 44% | 74% | 35% |  | 5 nM | CC1CCCC1N1C(=O)C2(CC2)c2cnc(NC3CCN(S(=O)(=O)N4CCN(C(=O)CCCCCCCc5cccc6c5n(C)c(=O)n6C5CCC(=O)NC5=O)CC4)CC3)nc21 (centres unmarked) [Compound 46]
6 | 10% | 44% | 18% |  |  | CC1CCCC1N1C(=O)C2(CC2)c2cnc(NC3CCN(S(=O)(=O)N4CCC5(CCN(C(=O)CCCCCCCc6cccc7c6n(C)c(=O)n7C6CCC(=O)NC6=O)C5)C4)CC3)nc21 (centres unmarked) [Compound 47]
7 | 15% | 35% | 42% |  |  | CC1CCCC1N1C(=O)C2(CC2)c2cnc(NC3CCN(S(=O)(=O)C4CCCN(C(=O)CCCCCCCc5cccc6c5n(C)c(=O)n6C5CCC(=O)NC5=O)C4)CC3)nc21 (centres unmarked) [Compound 48]
8 | 17% | 37% | 16% |  |  | CC1CCCC1N1C(=O)C2(CC2)c2cnc(NC3CCN(S(=O)(=O)N4CC5(CCCN(C(=O)CCCCCCCCCc6cccc7c6n(C)c(=O)n7C6CCC(=O)NC6=O)C5)C4)CC3)nc21 (centres unmarked) [Compound 50]
9 | 41% | 56% | 40% |  | 53 nM | CC1CCCC1N1C(=O)C2(CC2)c2cnc(NC3CCN(S(=O)(=O)N4CC5(CCN(C(=O)CCCCCCCCCc6cccc7c6n(C)c(=O)n7C6CCC(=O)NC6=O)CC5)C4)CC3)nc21 (centres unmarked) [Compound 51]
10 | 36% | 62% | 46% |  | 10 nM | CC1CCCC1N1C(=O)C2(CC2)c2cnc(NC3CCN(S(=O)(=O)C4CCN(C(=O)CCCCCCCCCc5cccc6c5n(C)c(=O)n6C5CCC(=O)NC5=O)C4)CC3)nc21 (centres unmarked) [Compound 53]

Further lines, the molecule ahead of its results:

Row | SMILES | Dmax (CDK9) | CDK2 HIBIT Protein Quantification Maximum (CDK2) | CCNE1 HIBIT Protein Quantification Maximum (CCNE1) | DC50 (CDK9) | DC50 (CDK2)
11 | CC1CCCC1N1C(=O)C2(CC2)c2cnc(NC3CCN(S(=O)(=O)N4CCCN(C(=O)CCCc5cccc6c5n(C)c(=O)n6C5CCC(=O)NC5=O)CC4)CC3)nc21 (centres unmarked) [Compound 33] | 4% | 42% | 9% |  | 
12 | CC1CCCC1N1C(=O)C2(CC2)c2cnc(NC3CCN(S(=O)(=O)N4CC(N(C)C(=O)CCCCCc5cccc6c5n(C)c(=O)n6C5CCC(=O)NC5=O)C4)CC3)nc21 (centres unmarked) [Compound 34] | 61% | 72% | 44% | 13.6 nM | 6 nM
13 | CC1CCCC1N1C(=O)C2(CC2)c2cnc(NC3CCN(S(=O)(=O)N4CCCC45CCN(C(=O)CCCCCc4cccc6c4n(C)c(=O)n6C4CCC(=O)NC4=O)C5)CC3)nc21 (centres unmarked) [Compound 35] | 17% | 34% | 21% |  | 
14 | CC1CCCC1N1C(=O)C2(CC2)c2cnc(NC3CCN(S(=O)(=O)N4CC5(CCCCN5C(=O)CCCCCc5cccc6c5n(C)c(=O)n6C5CCC(=O)NC5=O)C4)CC3)nc21 (centres unmarked) [Compound 37] | 0% | 40% | 30% |  | 
15 | CC1CCCC1N1C(=O)C2(CC2)c2cnc(NC3CCN(S(=O)(=O)N4CC5(CCN(C(=O)CCCCCc6cccc7c6n(C)c(=O)n7C6CCC(=O)NC6=O)CC5)C4)CC3)nc21 (centres unmarked) [Compound 40] | 44% | 69% | 29% |  | 5 nM
16 | CC1CCCC1N1C(=O)C2(CC2)c2cnc(NC3CCN(S(=O)(=O)N4CCC5(CCN(C(=O)CCCCCc6cccc7c6n(C)c(=O)n7C6CCC(=O)NC6=O)C5)C4)CC3)nc21 (centres unmarked) [Compound 42] | 17% | 70% | 23% |  | 7 nM
17 | CC1CCCC1N1C(=O)C2(CC2)c2cnc(NC3CCN(S(=O)(=O)N4CC(N(C)C(=O)CCCCCCCCCc5cccc6c5n(C)c(=O)n6C5CCC(=O)NC5=O)C4)CC3)nc21 (centres unmarked) [Compound 49] | 66% | 62% | 8% | 6.53 nM | 34 nM
18 | CC1CCCC1N1C(=O)C2(CC2)c2cnc(NC3CCN(S(=O)(=O)N4CCC5(CCN(C(=O)CCCCCCCCCc6cccc7c6n(C)c(=O)n7C6CCC(=O)NC6=O)C5)C4)CC3)nc21 (centres unmarked) [Compound 52] | 29% | 56% | 19% |  | 2 nM
19 | CC1CCCC1N1C(=O)C2(CC2)c2cnc(NC3CCN(S(=O)(=O)N4CC5CN(C(=O)CCc6ccc7c(c6)n(C)c(=O)n7C6CCC(=O)NC6=O)CC5C4)CC3)nc21 (centres unmarked) [Compound 55] | 8% | 25% | 13% |  | 
20 | CC1CCCC1N1C(=O)C2(CC2)c2cnc(NC3CCN(S(=O)(=O)N4CCC5(CCCN5C(=O)CCc5ccc6c(c5)n(C)c(=O)n6C5CCC(=O)NC5=O)C4)CC3)nc21 (centres unmarked) [Compound 56] | 15% | 41% | 19% |  | 
21 | CC1CCCC1N1C(=O)C2(CC2)c2cnc(NC3CCN(S(=O)(=O)N4CC5(CCCN(C(=O)CCc6ccc7c(c6)n(C)c(=O)n7C6CCC(=O)NC6=O)C5)C4)CC3)nc21 (centres unmarked) [Compound 57] | 15% | 53% | 22% |  | 
22 | CC1CCCC1N1C(=O)C2(CC2)c2cnc(NC3CCN(S(=O)(=O)N4CC5(CN(C(=O)CCc6ccc7c(c6)n(C)c(=O)n7C6CCC(=O)NC6=O)C5)C4)CC3)nc21 (centres unmarked) [Compound 58] | 9% | 12% | 10% |  | 
23 | CC1CCCC1N1C(=O)C2(CC2)c2cnc(NC3CCN(S(=O)(=O)N4CC5(CCN(C(=O)CCc6ccc7c(c6)n(C)c(=O)n7C6CCC(=O)NC6=O)CC5)C4)CC3)nc21 (centres unmarked) [Compound 59] | 17% | 46% | 24% |  | 
24 | CC1CCCC1N1C(=O)C2(CC2)c2cnc(NC3CCN(S(=O)(=O)N4CCC5(CCN(C(=O)CCc6ccc7c(c6)n(C)c(=O)n7C6CCC(=O)NC6=O)C5)C4)CC3)nc21 (centres unmarked) [Compound 60] | 28% | 18% | 17% |  | 
